One experiment has as its target JAK1 (Homo sapiens (Human), UniProt P23458). As to the kind of experiment: JAK1 IC50, Assay A of U.S. Ser. No. 14/680,659 at 1 mM ATP. It is filed as biochemical.
A further experiment addresses JAK2 (Homo sapiens (Human), UniProt O60674). As to the kind of experiment: JAK2/JAK1 selectivity, Assay A at 1 mM ATP. It is filed as biochemical. The conditions noted are these: IC50 ratio.

JAK2, sequence (O60674 828-1132): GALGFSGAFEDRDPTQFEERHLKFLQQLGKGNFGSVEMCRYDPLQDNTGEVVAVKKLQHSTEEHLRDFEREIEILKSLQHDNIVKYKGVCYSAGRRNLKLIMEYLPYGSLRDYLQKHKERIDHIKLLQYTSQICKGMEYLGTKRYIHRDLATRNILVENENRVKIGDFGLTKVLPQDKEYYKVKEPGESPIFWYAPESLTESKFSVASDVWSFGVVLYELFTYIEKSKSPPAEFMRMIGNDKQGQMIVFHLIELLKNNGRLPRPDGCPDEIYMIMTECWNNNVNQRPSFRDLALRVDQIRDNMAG
JAK1, sequence (P23458 837-1142): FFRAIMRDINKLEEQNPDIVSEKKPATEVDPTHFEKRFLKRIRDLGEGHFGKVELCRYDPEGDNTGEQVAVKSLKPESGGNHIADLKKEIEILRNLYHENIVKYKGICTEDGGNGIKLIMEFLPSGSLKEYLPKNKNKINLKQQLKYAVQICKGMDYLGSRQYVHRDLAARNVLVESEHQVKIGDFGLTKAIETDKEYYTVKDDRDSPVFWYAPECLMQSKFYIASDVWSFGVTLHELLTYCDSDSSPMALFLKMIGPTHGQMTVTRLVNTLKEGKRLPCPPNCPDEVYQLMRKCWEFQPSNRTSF

A word on the IC50: it is the concentration at which inhibition is half-maximal. A higher IC50 goes with a need for much substance. For `N#CCC1(n2cc(-c3ncnc4[nH]ccc34)cn2)CN([C@H]2CC[C@@H](Oc3cc(CN4CC[C@@H](O)C4)cc(C(F)(F)F)n3)CC2)C1` [Example 21, {1-(cis-4-{[4-{[(3R)-3-hydroxypyrrolidin-1-yl]methyl}-6-(trifluoromethyl)pyridin-2-yl]oxy}cyclohexyl)-3-[4-(7H-pyrrolo[2,3-d]pyrimidin-4-yl)-1H-pyrazol-1-yl]azetidin-3-yl}acetonitrile], the IC50 against JAK1 was less than 10 nM. In addition, the “JAK2/ JAK1” value on JAK2 is recorded as more than 10.

At JAK1, `C[C@@H](CO)NCc1cc(OC2CCN([C@H]3C[C@](CC#N)(n4cc(-c5ncnc6[nH]ccc56)cn4)C3)CC2)nc(C(F)(F)F)c1` [Example 23] showed an IC50 of less than 10 nM. Moreover, the “JAK2/ JAK1” value at JAK2 is reported as more than 10.

In turn, `CC(C)(O)c1cc(O[C@H]2CC[C@@H](N3CC(CC#N)(n4cc(-c5ncnc6[nH]ccc56)cn4)C3)CC2)nc(C(F)(F)F)c1` [Example 20, {1-(cis-4-{[4-(1-hydroxy-1-methylethyl)-6-(trifluoromethyl)pyridin-2-yl]oxy}cyclohexyl)-3-[4-(7H-pyrrolo[2,3-d]pyrimidin-4-yl)-1H-pyrazol-1-yl]azetidin-3-yl}acetonitrile] yielded an IC50 at JAK1 of less than 10 nM. The “JAK2/ JAK1” value on JAK2 is given as more than 10.

`N#CCC1(n2cc(-c3ncnc4[nH]ccc34)cn2)CN(C2CCN(C(=O)c3ccnc(C(F)(F)F)c3F)CC2)C1` [Example 7] registered an IC50 at JAK1 of less than 10 nM. Also, the “JAK2/ JAK1” value on JAK2 is reported as more than 10.

`N#CC[C@]1(n2cc(-c3ncnc4[nH]ccc34)cn2)C[C@H](N2CCC(Oc3cc(CN4CCC[C@@H]4CO)cc(C(F)(F)F)n3)CC2)C1` [Example 13] returned an IC50 on JAK1 of less than 10 nM. Also, the “JAK2/ JAK1” value on JAK2 is given as more than 10.

The compound `N#CCC1(n2cc(-c3ncnc4[nH]ccc34)cn2)CN([C@H]2CC[C@@H](Oc3cc(CCO)nc(C(F)(F)F)n3)CC2)C1` [Example 18, {1-(cis-4-{[6-(2-hydroxyethyl)-2-(trifluoromethyl)pyrimidin-4-yl]oxy}cyclohexyl)-3-[4-(7H-pyrrolo[2,3-d]pyrimidin-4-yl)-1H-pyrazol-1-yl]azetidin-3-yl}acetonitrile] returned an IC50 against JAK1 of less than 10 nM. For the same compound, the “JAK2/ JAK1” value at JAK2 was more than 10.

For `N#CC[C@]1(n2cc(-c3ncnc4[nH]ccc34)cn2)C[C@H](N2CCC(Oc3cc(CN4CC(O)C4)cc(C(F)(F)F)n3)CC2)C1` [Example 11], the IC50 against JAK1 was less than 10 nM. In addition, the “JAK2/ JAK1” value at JAK2 is more than 10.

In the case of `N#CCC1(n2cc(-c3ncnc4[nH]ccc34)cn2)CN(C2CCN(C(=O)c3ccnc(C(F)(F)F)n3)CC2)C1` [Example 9, [3-[4-(7H-pyrrolo[2,3-d]pyrimidin-4-yl)-1H-pyrazol-1-yl]-1-(1-{[2-(trifluoromethyl)pyrimidin-4-yl]carbonyl}piperidin-4-yl)azetidin-3-yl]acetonitrile], on JAK1, the IC50 is less than 10 nM. The “JAK2/ JAK1” value at JAK2 is given as more than 10.

Take `C[C@H](NC(=O)c1cc(F)c(N2CC(CC#N)(n3cc(-c4ncnc5[nH]ccc45)cn3)C2)cc1F)C(F)(F)F` [Example 16, 4-{3-(cyanomethyl)-3-[4-(7H-pyrrolo[2,3-d]pyrimidin-4-yl)-1H-pyrazol-1-yl]azetidin-1-yl}-2,5-difluoro-N-[(1S)-2,2,2-trifluoro-1-methylethyl]benzamide]: on JAK1, the IC50 was less than 10 nM. The “JAK2/ JAK1” value at JAK2 is on record as more than 10.

In turn, `N#CC[C@]1(n2cc(-c3ncnc4[nH]ccc34)cn2)C[C@H](N2CCC(Oc3cc(CN4CCC[C@H]4CO)cc(C(F)(F)F)n3)CC2)C1` [Example 12] displayed an IC50 at JAK1 of less than 10 nM. In addition, at JAK2, the “JAK2/ JAK1” value was more than 10.

`C[C@@H](O)CNCc1cc(OC2CCN([C@H]3C[C@](CC#N)(n4cc(-c5ncnc6[nH]ccc56)cn4)C3)CC2)nc(C(F)(F)F)c1` [Example 24] gave an IC50 against JAK1 of less than 10 nM. Besides, the “JAK2/ JAK1” value on JAK2 is more than 10.

At JAK1, `N#CC[C@]1(n2cc(-c3ncnc4[nH]ccc34)cn2)C[C@H](N2CCC(Oc3cc(CCO)cc(C(F)(F)F)n3)CC2)C1` [Example 26] had a half-maximal inhibitory concentration (IC50) of less than 10 nM. Moreover, on JAK2, the “JAK2/ JAK1” value is on record as more than 10.

For the compound `C[C@@H](O)c1nc2cnc3ccsc3c2n1[C@H]1CC[C@H](CC#N)OC1` [Example 1, ((2R,5S)-5-{2-[(1R)-1-hydroxyethyl]-1H-imidazo[4,5-d]thieno[3,2-b]pyridin-1-yl}tetrahydro-2H-pyran-2-yl)acetonitrile], the IC50 against JAK1 was less than 100 nM. In addition, the “JAK2/ JAK1” value on JAK2 is listed as more than 10.

As for `N#CC[C@]1(n2cc(-c3ncnc4[nH]ccc34)cn2)C[C@H](N2CCN(C(=O)c3ccnc(C(F)(F)F)n3)CC2)C1` [Example 10], on JAK1, the IC50 is less than 10 nM. The “JAK2/ JAK1” value at JAK2 is recorded as more than 10.

`N#CCC(CN1CCN(C(=O)c2ccc(C#N)cc2F)CC1)n1cc(-c2ncnc3[nH]ccc23)cn1` (stereo not drawn) [Example 5, 4-[(4-{3-cyano-2-[4-(7H-pyrrolo[2,3-d]pyrimidin-4-yl)-1H-pyrazol-1-yl]propyl}piperazin-1-yl)carbonyl]-3-fluorobenzonitrile] gave an IC50 against JAK1 of less than 10 nM. Moreover, the “JAK2/ JAK1” value at JAK2 is more than 10.

`C[C@H](O)CNCc1cc(OC2CCN([C@H]3C[C@](CC#N)(n4cc(-c5ncnc6[nH]ccc56)cn4)C3)CC2)nc(C(F)(F)F)c1` [Example 25] displayed an IC50 on JAK1 of less than 10 nM. In addition, the “JAK2/ JAK1” value on JAK2 is more than 10.

For the compound `N#CCC(C1CCN(c2nc3cccnc3o2)C1)n1cc(-c2ncnc3[nH]ccc23)cn1` (stereo not drawn) [Example 4, 3-(1-[1,3]oxazolo[5,4-b]pyridin-2-ylpyrrolidin-3-yl)-3-[4-(7H-pyrrolo[2,3-d]pyrimidin-4-yl)-1H-pyrazol-1-yl]propanenitrile], on JAK1, the IC50 was less than 10 nM. The “JAK2/ JAK1” value on JAK2 is more than 10.

Take `N#CCC1(n2cc(-c3ncnc4[nH]ccc34)cn2)CN([C@H]2CC[C@@H](Oc3cc(CN4CC[C@H](O)C4)cc(C(F)(F)F)n3)CC2)C1` [Example 22, {1-(cis-4-{[4-{[(3S)-3-hydroxypyrrolidin-1-yl]methyl}-6-(trifluoromethyl)pyridin-2-yl]oxy}cyclohexyl)-3-[4-(7H-pyrrolo[2,3-d]pyrimidin-4-yl)-1H-pyrazol-1-yl]azetidin-3-yl}acetonitrile]: at JAK1, the IC50 was less than 10 nM. In addition, the “JAK2/ JAK1” value on JAK2 is reported as more than 10.

Compound `CCNCc1cc(O[C@H]2CC[C@@H](N3CC(CC#N)(n4cc(-c5ncnc6[nH]ccc56)cn4)C3)CC2)nc(C(F)(F)F)c1` [Example 19, {1-(cis-4-{[4-[(ethylamino)methyl]-6-(trifluoromethyl)pyridin-2-yl]oxy}cyclohexyl)-3-[4-(7H-pyrrolo[2,3-d]pyrimidin-4-yl)-1H-pyrazol-1-yl]azetidin-3-yl}acetonitrile] displayed an IC50 against JAK1 of less than 10 nM. Moreover, the “JAK2/ JAK1” value on JAK2 was more than 10.

For `N#CCC(CN1CCN(C(=O)c2ccc(C#N)cc2F)CC1)n1ccc(-c2ncnc3[nH]ccc23)c1` (stereo not drawn) [Example 6, 4-[(4-{3-cyano-2-[3-(7H-pyrrolo[2,3-d]pyrimidin-4-yl)-1H-pyrrol-1-yl]propyl}piperazin-1-yl)carbonyl]-3-fluorobenzonitrile], on JAK1, the IC50 is less than 10 nM. Moreover, on JAK2, the “JAK2/ JAK1” value is recorded as more than 10.

For the compound `N#CCC(C1CCN(c2cccc(Cl)n2)C1)n1cc(-c2ncnc3[nH]ccc23)cn1` (stereo not drawn) [Example 3, 3-[1-(6-chloropyridin-2-yl)pyrrolidin-3-yl]-3-[4-(7H-pyrrolo[2,3-d]pyrimidin-4-yl)-1H-pyrazol-1-yl]propanenitrile], on JAK1, the IC50 is less than 10 nM. Further, at JAK2, the “JAK2/ JAK1” value is more than 10.

Values taken from US12226418B2, “Dosing regimen for the treatment of PI3K related disorders” (Incyte Corporation, priority 2018, dated 2025).
